Assay results published in US20250288627A1, “COMPOSITION FOR AMELIORATING, PREVENTING OR TREATING SYSTEMIC SCLEROSIS AND PULMONARY FIBROSIS CONTAINING BIFIDOBACTERIUM LONGUM RAPO” (INDUSTRY-ACADEMIC COOPERATION FOUNDATION GYEONGSANG …, priority 2024, published 2025).

Tested on: mice with idiopathic pulmonary fibrosis
Assay: Single/combination administration of pirfenidone and Bifidobacterium longum RAPO in idiopathic pulmonary fibrosis mice (intratracheal BLM 2 U/mouse kg)
Type: in vivo
Details: for pulmonary fibrosis: FIG. 3
Excerpt: To determine whether or not administration of a combination of pirfenidone (PFD), which is a conventional approved and used drug for pulmonary fibrosis, with Bifidobacterium longum RAPO, has a synergistic therapeutic effect due to Bifidobacterium longum RAPO, the inhibitory effects on pulmonary fibrosis after single and combination administration of PFD and Bifidobacterium longum were compared and evaluated in mice with idiopathic pulmonary fibrosis.
Idiopathic pulmonary fibrosis was induced by a single intratracheal injection of 50 μL (2 U/mouse kg) of BLM into 8-week-old male C57BL/6 mice to induce pulmonary fibrosis. Pirfenidone (PFD) and Bifidobacterium longum RAPO were administered orally 5 times a week for a total of 2 weeks, starting 7 days after inducing pulmonary fibrosis with BLM until the 21st day, the end date of the experiment. The administration groups and doses were as follows: 1) Normal control group: normal mice that were not administered any treatment; 2) disease control group: IPF mice administered vehicle containing neither PFD nor Bifidobacterium longum RAPO; 3) P100 group: IPF mice administered PFD 100 mg/mouse kg; 4) P200 group: IPF mice administered PFD 200 mg/mouse kg; 5) RAPO-A group: IPF mice administered Bifidobacterium longum RAPO 1×10^8 CFU/mouse; 6) RAPO-B group: IPF mice administered Bifidobacterium longum RAPO 5×10^8 CFU/mouse; 8) Comb A group: IPF mice administered a combination of PFD 100 mg/mouse kg and Bifidobacterium longum RAPO 1×10^8 CFU/mouse; 7) Comb B group: IPF mice administered a combination of 100 mg/mouse kg and Bifidobacterium longum RAPO 5×10^8 CFU/mouse. Efficacy evaluation was performed as follows. Lung tissues of mice with fibrosis induced on the 21st day after the start of BLM administration were sampled and fixed with formalin to form paraffin tissue blocks. The formed paraffin blocks were cut into 5 μm thick sections with a microtome and stained with Masson-Trichrome (MT), and the degree of pulmonary fibrosis was evaluated by analysis of an Ashcroft score, a collagen area, and an alveoli area.

[1] = P100 group: PFD 100 mg/mouse kg alone, compared to vehicle group

Q: Cc1ccc(=O)n(-c2ccccc2)c1 [PFD, pirfenidone] was tested. Which “pulmonary fibrosis amelioration relative to P200 group” value (P100 group: PFD 100 mg/mouse kg alone, compared to P200 group) did it give?
A: did not ameliorate pulmonary fibrosis comparable to the P200 group

Q: What about the Ashcroft score [1] of the same compound?
A: improvement

Q: What about the collagen area [1] of the same compound?
A: improvement

Q: What about the pulmonary fibrosis [1] of the same compound?
A: also alleviated pulmonary fibrosis

Q: What about the pulmonary fibrosis (P200 group: PFD 200 mg/mouse kg alone, oral, 5 times a week, 2 weeks, compared to vehicle group) of the same compound?
A: significantly alleviated pulmonary fibrosis
